Results published in patent US9750253B2, “Pesticidally active substituted pyridyl carboxamides” (Syngenta Participations AG, priority 2013, dated 2017).

Experiments:
Type in all cases: in vivo
[1] = test system: Myzus persicae (Green Peach Aphid); assay: whole plant or invertebrate; conditions: foliar, 144 h, sunflower leaf discs sprayed, 6 days incubation
Procedure: Example B1: Activity Against Myzus persicae (Green Peach Aphid) (Mixed Population, Feeding/Residual Contact Activity, Preventive)
Sunflower leaf discs were placed on agar in a 24-well microtiter plate and sprayed with test solutions. After drying, the leaf discs were infested with an aphid population of mixed ages. After an incubation period of 6 days, samples were checked for mortality and special effects (e.g. phytotoxicity).

[2] = test system: Myzus persicae (Green Peach Aphid); assay: whole plant or invertebrate; conditions: 144 h, pea seedlings, roots in test solution, 6 days after introduction
Description: Example B2: Activity Against Myzus persicae (Green Peach Aphid) (Mixed Population, Systemic/Feeding Activity, Curative)
Pea seedlings, infested with an aphid population of mixed ages, were placed with the roots directly in the test solutions. 6 days after introduction, samples were checked for mortality and special effects on the plant.

Bemisia tabaci = assay: whole plant or invertebrate; conditions: foliar, 168 h, cotton leaf discs sprayed, adult white flies, 7 DAT
Procedure: Example B3: Activity Against Bemisia tabaci, (Adults on Cotton, Contact, Preventative)
Cotton leaf discs are placed on agar in a 24-well microtiter plate and sprayed with test solutions. After drying, the leaf discs are infested with adult white flies. After an incubation period of 7 DAT, samples are checked for mortality and special effects (e.g. phytotoxicity).

[3] = test system: Rhopalosiphum padi (Bird Cherry Oat Aphid); assay: Activity against Rhopalosiphum padi, barley, seed treatment, mixed population, systemic/feeding activity, preventive
Procedure: Example B5: Activity Against Rhopalosiphum padi (Bird Cherry Oat Aphid, Barley) (Seed Treatment) Mixed Population, Systemic/Feeding Activity, Preventive
The barley seeds were coated with the active ingredients as described in the formulation example F9 above.
A treated barley seed was sown in a 350 ml pot filled with soil. Two weeks after sowing the barley seedling was infested with an aphid population of mixed stages. After an incubation period of seven days the grade of efficacy was estimated and expressed in percentage.
Activity against Rhopalosiphum padi (Bird Cherry Oat Aphid, barley) (seed treatment) mixed population, systemic/feeding activity, preventive: […]

Row | Structure (SMILES) | mortality at 200 ppm [1] [%] | mortality at 24 ppm [2] [%] | mortality at 200 ppm (Bemisia tabaci) [%] | Mortality (%) ([3]; 0.01 mg ai/seed) | Mortality (%) ([3]; 0.03 mg ai/seed) | Mortality (%) ([3]; 0.1 mg ai/seed) | Mortality (%) ([3]; 0.3 mg ai/seed) | Mortality (%) ([3]; 1 mg ai/seed)
1 | Cc1cccnc1-n1ncc(C(=O)N(C)c2cccnc2)c1C [Compound 1.001, 1-(3-methylpyridin-2-yl)-5-methyl-1H-pyrazole-4-carboxylic acid methyl-pyridin-3-yl-amide] | ≥ 80 | > 80 | > 80 | 70 | 85 | 95 | 99 | 99
2 | Cc1cc(Br)cnc1-n1ncc(C(=O)N(C)c2cccnc2)c1C [Compound 1.003, 1-(5-bromo-3-methyl-2-pyridyl)-N,5-dimethyl-N-(3-pyridyl)pyrazole-4-carboxamide] | ≥ 80 | – | – | – | – | – | – | –
3 | Cc1cc(C#N)cnc1-n1ncc(C(=O)N(C)c2cccnc2)c1C [Compound 1.004, 1-(5-cyano-3-methyl-2-pyridyl)-N,5-dimethyl-N-(3-pyridyl)pyrazole-4-carboxamide] | ≥ 80 | > 80 | – | – | – | – | – | –
4 | CCc1cccnc1-n1ncc(C(=O)N(C)c2cccnc2)c1C [Compound 1.025, 1-(3-ethyl-2-pyridyl)-N,5-dimethyl-N-(3-pyridyl)pyrazole-4-carboxamide] | ≥ 80 | – | – | – | – | – | – | –
5 | Cc1cccnc1-n1ncc(C(=O)N(C)c2ccc[n+]([O-])c2)c1C [Compound 1.079, 1-(3-methylpyridin-2-yl)-5-methyl-1H-pyrazole-4-carboxylic acid methyl-pyridin-N-oxide-3-yl-amide] | ≥ 80 | > 80 | – | – | – | – | – | –
6 | Cc1ccc(Cl)nc1-n1ncc(C(=O)N(C)c2ccnnc2)c1C [Compound 1.230, 1-(6-chloro-3-methyl-2-pyridyl)-N,5-dimethyl-N-pyridazin-4-yl-pyrazole-4-carboxamide] | ≥ 80 | – | > 80 | – | – | – | – | –
7 | Cc1c(C(=O)N(C)c2cccnc2)cnn1-c1ncccc1Cl [Compound 877, reference compound] | – | – | – | 0 | 0 | 42 | 63 | 84
